Values quoted from earlier work, collected in patent publication US20260356834A1, “ANTICONVULSIVE COMPOUNDS AND USES THEREOF” (Jazz Pharmaceuticals Research UK Limite, priority 2023, published 2026).

How the values were obtained:
RjOrl: Swiss mice = conditions: 44 mA; Klein et al., 2017; cited from earlier work
CB1 = conditions: cited from earlier work
CB2 receptors = conditions: cited from earlier work
[1] = in vivo; cited from earlier work

C=C(C)[C@@H]1CCC(C)=C[C@H]1c1c(O)cc(CCCCC)cc1O [CBD, cannabidiol]
anticonvulsive effects in the 6 Hz test (RjOrl: Swiss mice): exhibit anticonvulsive effects
binding to CB1 (CB1): does not bind
binding to CB2 receptors (CB2 receptors): does not bind
psychotropic effects associated with cannabis [1]: does not induce the psychotropic effects
